Data reported in US20130157860A1, “METHOD OF CONTROLLING A WEED IN A GRAMINEOUS BIOMASS CROP” (SUMITOMO CHEMICAL COMPANY, LIMITED, priority 2011, published 2013).

Assays:
[1] = test system: switchgrass, miscanthus, giant reed, reed canarygrass, blue stem, erianthus, napier grass, and spartina; assay: Test Example 2: post-emergence application, phytotoxicity on biomass crops; type: in vivo
Protocol: (§1) A field soil is filled into a 32 cm×22 cm plastic case having a depth of 8 cm, seeds of switchgrass, miscanthus, giant reed, reed canarygrass, blue stem, erianthus, napier grass, spartina, Echinochloa crus-galli, Digitaria adscendens, Chenopodium album and Abutilon theophrasti are seeded thereon, and the seeds are covered with about 0.5 cm of a soil, and cultivated in a greenhouse for 2 weeks.

[2] = test system: switchgrass, miscanthus, giant reed, reed canarygrass, blue stem, erianthus, napier grass, and spartina; assay: Test Example 1: pre-emergence application, phytotoxicity on biomass crops
Protocol: Pre-emergence application in switchgrass, miscanthus, giant reed, reed canarygrass, blue stem, erianthus, napier grass and spartina
A field soil is filled into a 32 cm×22 cm plastic case having a depth of 8 cm, seeds of switchgrass, miscanthus, giant reed, reed canarygrass, blue stem, erianthus, napier grass, spartina, Setaria faberi, Amaranthus retroflexus, Chenepodium album, and Stellaria media are seeded thereon, and the seeds are covered with about 0.5 cm of a soil.

[3] = test system: Echinochloa crus-galli, Digitaria adscendens, Chenopodium album and Abutilon theophrasti; assay: Test Example 2: post-emergence application, herbicidal activity; type: in vivo; details: post-emergence application after 2 weeks of cultivation, 25 to 1000 g per 1 hectare, greenhouse, evaluated 21 days after treatment
Protocol: as §1

[4] = test system: Setaria faberi, Amaranthus retroflexus, Chenepodium album, and Stellaria media; assay: Test Example 1: pre-emergence application, herbicidal activity; type: in vivo; details: pre-emergence application to soil surface, 25 to 1000 g per 1 hectare, greenhouse, evaluated 21 days after treatment
[5] = post-emergence application after 2 weeks of cultivation, 25 to 1000 g per 1 hectare, greenhouse, evaluated 21 days after treatment
[6] = pre-emergence application to soil surface, 25 to 1000 g per 1 hectare, greenhouse, evaluated 21 days after treatment

| SMILES | phytotoxicity ([1]; in vivo) | phytotoxicity ([2]; in vivo) | herbicidal activity [3] | herbicidal activity [4] | phytotoxicity [1, 5] | phytotoxicity [2, 6] |
| --- | --- | --- | --- | --- | --- | --- |
| C#CCN1C(=O)COc2cc(F)c(-n3c(=O)n(C)c(=S)n(C)c3=O)cc21 [compound represented by the formula (I)] | without causing a significant phytotoxicity | without causing significant phytotoxicity | high herbicidal activity | high herbicidal activity | – | – |
| C#CCN1C(=O)COc2cc(F)c(N3C(=O)C4=C(CCCC4)C3=O)cc21 [flumioxazin] | – | – | high herbicidal activity | high herbicidal activity | without causing a significant phytotoxicity | without causing significant phytotoxicity |
| CS(=O)(=O)NC(=O)c1cc(Oc2ccc(C(F)(F)F)cc2Cl)ccc1[N+](=O)[O-] [fomesafen] | – | – | high herbicidal activity | high herbicidal activity | – | without causing significant phytotoxicity |
| CCOc1cc(Oc2ccc(C(F)(F)F)cc2Cl)ccc1[N+](=O)[O-] [oxyfluorfen] | – | – | high herbicidal activity | high herbicidal activity | without causing a significant phytotoxicity | without causing significant phytotoxicity |
| CC(C)N(C)S(=O)(=O)NC(=O)c1cc(-n2c(=O)cc(C(F)(F)F)n(C)c2=O)c(F)cc1Cl [saflufenacil] | – | – | high herbicidal activity | high herbicidal activity | without causing a significant phytotoxicity | without causing significant phytotoxicity |
| Cc1nn(-c2cc(NS(C)(=O)=O)c(Cl)cc2Cl)c(=O)n1C(F)F [sulfentrazone] | without causing a significant phytotoxicity | without causing significant phytotoxicity | high herbicidal activity | high herbicidal activity | – | – |
